Test in the first data set: not given
Conditions: not given
As a reminder, the logP is a log measure of how a compound divides between an organic and an aqueous phase. High values mean higher lipophilicity, low ones lower lipophilicity. `N#Cc1ccc(-c2cccnc2)[nH]c1=O` yielded a logP of 0.05.

Turning to `Cc1[nH]c(=O)c(C#N)cc1C(=O)O`, the logP came to 0.15.

Regarding `CCOC(=O)c1cc(C#N)c(=O)[nH]c1C`, the lipophilicity (logP) was found to be 0.65.

Regarding `N#Cc1ccc(-c2ccncc2)[nH]c1=O`, the logP was found to be 0.02.

On to `COC(=O)c1cc(C(C)=O)c(C)[nH]c1=O`, for which the logP is -0.09.

For `N#Cc1ccc(-c2ccccn2)[nH]c1=O`, the logP was found to be 0.3.

The compound `CC(=O)c1cc(C(=O)O)c(=O)[nH]c1C` returned a logP of -0.04.

`Cc1[nH]c(=O)c(C#N)cc1C(=O)OCC(C)C` showed a logP of 1.78.

As for `Cc1ccc(C#N)c(=O)[nH]1`, the lipophilicity (logP) was -0.13.

The nature of another data set: method code SF, from DOI: 10.1016/j.ejps.2005.05.001, PMID: 15955679.
Conditions: not given
Turning to `CC(=O)c1ccc(-c2ccccc2)[nH]c1=O`, the logP is 1.74.

`O=c1[nH]c2c(cc1S(=O)(=O)c1ccccc1)CCCC2` returned a logP of 1.76.

With `O=C(c1ccccc1)c1cc2c([nH]c1=O)CCCC2`, the log partition coefficient (logP) worked out at 2.1.

Still in this data set, the particulars now being: pH 7.4.
A word on the logD: it is lipophilicity at a set pH, counting ionised and neutral species. Read a high logD as higher lipophilicity. Compound `CC(=O)c1ccc(=O)[nH]c1C` registered a logD of -0.3.

(Values after the SangsterLogP compilation.)
